Experimental data published in patent US20090163586A1, “Bis-(Sulfonylamino) Derivatives in Therapy 205” (AstraZeneca AB, priority 2007, published 2009).

molecular target: T1, human mPGES-1 (Homo sapiens, UniProt O14684); assay: Microsomal prostaglandin E synthase biochemical assay; details: microsome preparation containing human mPGES-1; PGH2 10.8 μM, GSH 2.5 mM, pH 6.8; PGE2 by HTRF; average of at least n=2
T1 sequence (O14684 1-152): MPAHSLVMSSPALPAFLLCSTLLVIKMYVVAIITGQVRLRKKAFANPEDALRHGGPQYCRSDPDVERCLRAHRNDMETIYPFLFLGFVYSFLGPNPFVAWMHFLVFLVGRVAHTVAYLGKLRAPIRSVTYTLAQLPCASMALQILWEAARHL
In short: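 Human mPGES-1 microsomes at 2 μg/mL were pre-incubated 15 min with compound (60 μM to 0.002 μM) in 50 mM potassium phosphate pH 6.8 with 2.5 mM GSH. The reaction was started with 10.8 μM PGH2 and stopped after 1 minute with acidic ferric chloride/citrate. PGE2 was quantified by HTRF; IC50 is the mean of at least 2 runs.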

Compound | IC50
COc1ncc(-c2cccc(S(=O)(=O)Nc3ccccc3S(N)(=O)=O)c2)c(OC)n1 [Example 118, 3-(2,4-Dimethoxypyrimidin-5-yl)-N-(2-sulfamoylphenyl)benzenesulfonamide] | 4.7 µM
NS(=O)(=O)c1ccccc1NS(=O)(=O)c1cccc(-c2ccoc2)c1 [Example 119, 2-[[3-(3-Furyl)phenyl]sulfonylamino]benzenesulfonamide] | 4.5 µM
NS(=O)(=O)c1ccccc1NS(=O)(=O)c1cccc(-c2ccc3[nH]ccc3c2)c1 [Example 120, 2-[[3-(1H-Indol-5-yl)phenyl]sulfonylamino]benzenesulfonamide] | 3.3 µM
NS(=O)(=O)c1ccccc1NS(=O)(=O)c1cccc(-c2cccc(OC(F)(F)F)c2)c1 [Example 121, 2-[[3-[3-(Trifluoromethoxy)phenyl]phenyl]sulfonylamino]benzenesulfonamide] | 0.22 µM
NS(=O)(=O)c1ccccc1NS(=O)(=O)c1ccc2c(c1)CCC2 [Example 122, N-(2-Sulfamoylphenyl)-2,3-dihydro-1H-indene-5-sulfonamide] | 6.7 µM
CN1CCOc2cc(S(=O)(=O)Nc3ccccc3S(N)(=O)=O)ccc21 [Example 123, 7-Methyl-N-(2-sulfamoylphenyl)-10-oxa-7-azabicyclo[4.4.0]deca-1,3,5-triene-3-sulfonamide] | 9.3 µM
NS(=O)(=O)c1ccccc1NS(=O)(=O)c1ccccc1-c1ccc(Cl)c(Cl)c1 [Example 124, 2-(3,4-Dichlorophenyl)-N-(2-sulfamoylphenyl)benzenesulfonamide] | 1.3 µM
NS(=O)(=O)c1ccccc1NS(=O)(=O)c1ccc(Oc2ncc(C(F)(F)F)cc2Cl)cc1 [Example 125, 2-[[4-[3-Chloro-5-(trifluoromethyl)pyridin-2-yl]oxyphenyl]sulfonylamino]benzenesulfonamide] | 7.2 µM
NS(=O)(=O)c1ccccc1NS(=O)(=O)c1ccc2c(c1)CCCC2 [Example 126] | 1.2 µM
NS(=O)(=O)c1ccccc1NS(=O)(=O)c1ccc(OCc2ccccc2)cc1 [Example 127, 4-Phenylmethoxy-N-(2-sulfamoylphenyl)benzenesulfonamide] | 5.1 µM
NS(=O)(=O)c1ccccc1NS(=O)(=O)c1ccc(C2CCCCC2)cc1 [Example 128, 2-[(4-Cyclohexylphenyl)sulfonylamino]benzenesulfonamide] | 1.7 µM
NS(=O)(=O)c1ccccc1NS(=O)(=O)c1cccc(-c2ccccc2)c1 [Example 129, 3-Phenyl-N-(2-sulfamoylphenyl)benzenesulfonamide] | 2.5 µM
Cn1nc(-c2ccc(S(=O)(=O)Nc3ccccc3S(N)(=O)=O)s2)cc1C(F)(F)F [Example 130, 5-(1-Methyl-5-trifluoromethyl-1H-pyrazol-3-yl)-thiophene-2-sulfonic acid (2-sulfamoyl-phenyl)-amide] | 5.2 µM
NS(=O)(=O)c1ccccc1NS(=O)(=O)c1ccc(C(F)(F)F)cc1 [Example 131, N-(2-Sulfamoylphenyl)-4-(trifluoromethyl)benzenesulfonamide] | 6.6 µM
NS(=O)(=O)c1ccccc1NS(=O)(=O)c1cccc(-c2cc(Cl)ccc2Cl)c1 [Example 132, 2-[[3-(2,5-Dichlorophenyl)phenyl]sulfonylamino]benzenesulfonamide] | 4.5 µM
NS(=O)(=O)c1ccccc1NS(=O)(=O)c1cccc(-c2cccc3c2oc2ccccc23)c1 [Example 133, 3-Dibenzofuran-4-yl-N-(2-sulfamoylphenyl)benzenesulfonamide] | 2.2 µM
NS(=O)(=O)c1ccccc1NS(=O)(=O)c1cccc(-c2ccc(C(F)(F)F)cc2)c1 [Example 134, 2-[[3-[4-(Trifluoromethyl)phenyl]phenyl]sulfonylamino]benzenesulfonamide] | 3.7 µM
COc1cccc(-c2cccc(S(=O)(=O)Nc3ccccc3S(N)(=O)=O)c2)c1 [Example 135, 3-(3-Methoxyphenyl)-N-(2-sulfamoylphenyl)benzenesulfonamide] | 8.3 µM
NS(=O)(=O)c1ccccc1NS(=O)(=O)c1cccc(-c2cc3ccccc3o2)c1 [Example 136, 3-Benzofuran-2-yl-N-(2-sulfamoylphenyl)benzenesulfonamide] | 3.8 µM
NS(=O)(=O)c1ccccc1NS(=O)(=O)c1cccc(-c2ccc3c(c2)CCO3)c1 [Example 137, 2-[[3-(2,3-Dihydrobenzofuran-5-yl)phenyl]sulfonylamino]benzenesulfonamide] | 2.1 µM
COc1ccc(-c2cccc(S(=O)(=O)Nc3ccccc3S(N)(=O)=O)c2)cn1 [Example 138, 3-(6-Methoxypyridin-3-yl)-N-(2-sulfamoylphenyl)benzenesulfonamide] | 0.57 µM
NS(=O)(=O)c1ccccc1NS(=O)(=O)c1cccc(-c2ccc(Cl)cc2Cl)c1 [Example 139, 2-[[3-(2,4-Dichlorophenyl)phenyl]sulfonylamino]benzenesulfonamide] | 1.8 µM
Cn1c(-c2cccc(S(=O)(=O)Nc3ccccc3S(N)(=O)=O)c2)cc2ccccc21 [Example 140, 3-(1-Methylindol-2-yl)-N-(2-sulfamoylphenyl)benzenesulfonamide] | 2.9 µM
NS(=O)(=O)c1ccccc1NS(=O)(=O)c1cccc(-c2cccc(C(F)(F)F)c2)c1 [Example 141, 2-[[3-[3-(Trifluoromethyl)phenyl]phenyl]sulfonylamino]benzenesulfonamide] | 3.1 µM
NS(=O)(=O)c1ccccc1NS(=O)(=O)c1ccc(-c2cc3ccccc3o2)cc1 [Example 142, 4-Benzofuran-2-yl-N-(2-sulfamoylphenyl)benzenesulfonamide] | 4.9 µM

Now from value to molecule:

IC50 | Compound
1.1 µM | NS(=O)(=O)c1ccccc1NS(=O)(=O)c1cccc(-c2ccc(F)cc2F)c1 [Example 143, 2-[[3-(2,4-Difluorophenyl)phenyl]sulfonylamino]benzenesulfonamide]
1.1 µM | NS(=O)(=O)c1cc(Br)ccc1NS(=O)(=O)c1cccc(-c2ccc(Cl)c(Cl)c2)c1 [Example 144, 5-Bromo-2-[[3-(3,4-dichlorophenyl)phenyl]sulfonylamino]benzenesulfonamide]
4.1 µM | NS(=O)(=O)c1cc(-c2ccccc2)ccc1NS(=O)(=O)c1cccc(-c2ccc(Cl)c(Cl)c2)c1 [Example 145, 2-[[3-(3,4-Dichlorophenyl)phenyl]sulfonylamino]-5-phenyl-benzenesulfonamide]
4.7 µM | NS(=O)(=O)c1ccccc1NS(=O)(=O)c1cccc(F)c1F [Example 146, 2,3-Difluoro-N-(2-sulfamoylphenyl)benzenesulfonamide]
3.9 µM | NS(=O)(=O)c1cc(F)ccc1NS(=O)(=O)c1cccc(F)c1F [Example 147, 2,3-Difluoro-N-(4-fluoro-2-sulfamoyl-phenyl)benzenesulfonamide]
0.38 µM | NS(=O)(=O)c1ccccc1NS(=O)(=O)c1cccc(Cl)c1F [Example 148, 3-Chloro-2-fluoro-N-(2-sulfamoylphenyl)benzenesulfonamide]
0.65 µM | NS(=O)(=O)c1ccccc1NS(=O)(=O)c1cccc(Cl)c1Cl [Example 149, 2,3-Dichloro-N-(2-sulfamoylphenyl)benzenesulfonamide]
4.2 µM | Cc1ccc(NS(=O)(=O)c2cccc(-c3ccc(Cl)c(Cl)c3)c2)c(S(N)(=O)=O)c1 [Example 150, 2-[[3-(3,4-Dichlorophenyl)phenyl]sulfonylamino]-5-methyl-benzenesulfonamide]
3.7 µM | NC(=O)c1ccc(NS(=O)(=O)c2cccc(-c3ccc(Cl)c(Cl)c3)c2)c(S(N)(=O)=O)c1 [Example 151, 4-[[3-(3,4-Dichlorophenyl)phenyl]sulfonylamino]-3-sulfamoyl-benzamide]
3.9 µM | Cc1ccc(NS(=O)(=O)c2cccc(-c3cccc(OC(F)(F)F)c3)c2)c(S(N)(=O)=O)c1 [Example 152, 5-Methyl-2-[[3-[3-(trifluoromethoxy)phenyl]phenyl]sulfonylamino]-benzenesulfonamide]
3.2 µM | NS(=O)(=O)c1cc(CO)ccc1NS(=O)(=O)c1cccc(Cl)c1Cl [Example 153, 2-(2,3-Dichloro-benzenesulfonylamino)-5-hydroxymethyl-benzenesulfonamide]
9.3 µM | Cc1ccc(NS(=O)(=O)c2cccc(Cl)c2Cl)c(S(N)(=O)=O)c1 [Example 154, 2-(2,3-Dichloro-benzenesulfonylamino)-5-methyl-benzenesulfonamide]
9.8 µM | NS(=O)(=O)c1cc(Oc2ccccc2)ccc1NS(=O)(=O)c1cccc(-c2ccc(Cl)c(Cl)c2)c1 [Example 155, 2-[[3-(3,4-Dichlorophenyl)phenyl]sulfonylamino]-5-phenoxy-benzenesulfonamide]
5.4 µM | NS(=O)(=O)c1cc(Oc2ccccc2)ccc1NS(=O)(=O)c1cccc(-c2cccc(OC(F)(F)F)c2)c1 [Example 156, 5-Phenoxy-2-[[3-[3-(trifluoromethoxy)phenyl]phenyl]sulfonylamino]-benzenesulfonamide]
1.1 µM | NS(=O)(=O)c1cc(O)ccc1NS(=O)(=O)c1cccc(Cl)c1Cl [Example 157, 2-(2,3-Dichloro-benzenesulfonylamino)-5-hydroxy-benzenesulfonamide]
8.7 µM | C[C@@](O)(C(=O)Nc1ccc(S(=O)(=O)Nc2ccccc2S(N)(=O)=O)cc1Cl)C(F)(F)F [Example 158, (2R)—N-[2-Chloro-4-[(2-sulfamoylphenyl)sulfamoyl]phenyl]-3,3,3-trifluoro-2-hydroxy-2-methyl-propanamide]
3.5 µM | NS(=O)(=O)c1ccccc1NS(=O)(=O)c1ccc(Cl)s1 [Example 159, 5-Chloro-N-(2-sulfamoylphenyl)thiophene-2-sulfonamide]
1.2 µM | NS(=O)(=O)c1ccccc1NS(=O)(=O)c1cc(Cl)c(Cl)s1 [Example 160, 4,5-Dichloro-N-(2-sulfamoylphenyl)thiophene-2-sulfonamide]
